From PMC4354951 (European journal of medicinal chemistry, 2008)

Tests used:
P2Y2R = conditions: cited from earlier work
[1] = physiological pH ref 30; cited from earlier work
[2] = pH 1.4, 37 °C ref 30; cited from earlier work
perfused rat pancreas = perfused rat pancreas ref 31, cited from earlier work
P2Y1R = conditions: cited from earlier work
[3] = tested on: 1321N1 astrocytoma and C6 glioma cells; conditions: via NPPs and CD73 ref 39; cited from earlier work
P2X1R = conditions: cited from earlier work
P2X2/3Rs = conditions: cited from earlier work
ecto-5′-nucleotidases = conditions: muscle strip preparations, 60 min incubation ref 21; cited from earlier work
rat P2Y6 receptor = rat P2Y6 receptor (Rattus norvegicus, UniProt Q63371); experiment: Increase in [Ca2+]i in 1321N1 astrocytoma cells expressing P2Y6 receptor; format: cell-based
human P2Y4 receptor = human P2Y4 receptor (Homo sapiens, UniProt P51582); experiment: Increase in [Ca2+]i in 1321N1 astrocytoma cells expressing P2Y4 receptor; format: cell-based
human NTPDase8 = target: T1, human NTPDase8 (Homo sapiens, UniProt Q5MY95); experiment: Hydrolysis by NTPDase8; format: biochemical; conditions: 100 μM substrate; relative to ATP hydrolysis (100%)
T1 sequence (Q5MY95 1-495): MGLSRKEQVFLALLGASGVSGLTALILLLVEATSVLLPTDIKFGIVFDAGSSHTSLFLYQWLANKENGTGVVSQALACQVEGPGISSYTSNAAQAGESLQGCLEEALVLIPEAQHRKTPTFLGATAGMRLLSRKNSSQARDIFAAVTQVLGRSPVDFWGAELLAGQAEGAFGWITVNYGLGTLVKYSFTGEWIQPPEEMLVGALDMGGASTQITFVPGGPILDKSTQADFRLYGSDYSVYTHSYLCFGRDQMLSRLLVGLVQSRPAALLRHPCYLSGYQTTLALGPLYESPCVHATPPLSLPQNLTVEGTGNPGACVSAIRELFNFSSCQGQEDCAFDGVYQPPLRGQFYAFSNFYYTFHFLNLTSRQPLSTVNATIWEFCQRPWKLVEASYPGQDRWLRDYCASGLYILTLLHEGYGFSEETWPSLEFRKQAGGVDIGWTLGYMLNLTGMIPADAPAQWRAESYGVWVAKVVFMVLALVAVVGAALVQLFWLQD

human NTPDase1 = target: T2, human NTPDase1 (Homo sapiens, UniProt P49961); experiment: Hydrolysis by NTPDase1; format: biochemical; conditions: 100 μM substrate; relative to ATP hydrolysis (100%)
T2 sequence (P49961 1-510): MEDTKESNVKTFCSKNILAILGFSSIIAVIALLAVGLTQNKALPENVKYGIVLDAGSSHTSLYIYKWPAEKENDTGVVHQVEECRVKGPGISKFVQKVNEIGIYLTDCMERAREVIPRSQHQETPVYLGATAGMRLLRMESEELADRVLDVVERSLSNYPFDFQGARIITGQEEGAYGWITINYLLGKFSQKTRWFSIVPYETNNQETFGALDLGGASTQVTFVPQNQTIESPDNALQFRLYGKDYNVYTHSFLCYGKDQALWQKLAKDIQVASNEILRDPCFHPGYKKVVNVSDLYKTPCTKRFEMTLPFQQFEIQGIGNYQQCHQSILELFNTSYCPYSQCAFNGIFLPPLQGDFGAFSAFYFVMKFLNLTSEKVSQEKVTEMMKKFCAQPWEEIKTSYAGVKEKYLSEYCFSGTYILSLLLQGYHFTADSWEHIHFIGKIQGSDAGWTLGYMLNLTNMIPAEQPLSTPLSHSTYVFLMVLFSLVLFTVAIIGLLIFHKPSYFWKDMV

[4] = Stability in human blood serum, Method A; format: in vitro ADME; conditions: half-life vs ATP
human NTPDase3 = target: T3, human NTPDase3 (Homo sapiens, UniProt O75355); experiment: Hydrolysis by NTPDase3; format: biochemical; conditions: 100 μM substrate; relative to ATP hydrolysis (100%)
T3 sequence (O75355 1-529): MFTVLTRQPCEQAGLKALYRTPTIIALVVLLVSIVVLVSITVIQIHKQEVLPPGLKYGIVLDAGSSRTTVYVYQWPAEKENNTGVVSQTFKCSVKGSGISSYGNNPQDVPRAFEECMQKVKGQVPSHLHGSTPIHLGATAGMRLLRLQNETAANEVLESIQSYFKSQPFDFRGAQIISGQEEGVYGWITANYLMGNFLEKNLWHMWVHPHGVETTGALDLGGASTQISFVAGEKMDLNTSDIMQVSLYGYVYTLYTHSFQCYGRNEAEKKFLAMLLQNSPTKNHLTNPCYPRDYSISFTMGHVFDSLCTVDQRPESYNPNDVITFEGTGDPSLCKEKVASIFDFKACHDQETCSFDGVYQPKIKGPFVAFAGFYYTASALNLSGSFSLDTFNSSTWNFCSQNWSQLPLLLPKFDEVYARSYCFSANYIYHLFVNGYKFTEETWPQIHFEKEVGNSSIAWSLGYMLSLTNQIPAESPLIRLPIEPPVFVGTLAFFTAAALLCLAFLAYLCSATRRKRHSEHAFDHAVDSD

[5] = pKa and degree of ionization of phosphate/phosphonate; format: physicochemical; conditions: physiological conditions, pH 7.4
turkey P2Y1 receptor = turkey P2Y1 receptor (Meleagris gallopavo, UniProt P49652); format: cell-based; conditions: 1321N1 cell transfectants
[6] = Chemical hydrolysis under gastric juice-like conditions; format: physicochemical; conditions: pH 1.4, 37 °C
human P2Y2 receptor = human P2Y2 receptor (Homo sapiens, UniProt P41231); experiment: Increase in [Ca2+]i in 1321N1 astrocytoma cells expressing P2Y2 receptor; format: cell-based
human P2Y2 receptor, sequence (P41231 whole entry): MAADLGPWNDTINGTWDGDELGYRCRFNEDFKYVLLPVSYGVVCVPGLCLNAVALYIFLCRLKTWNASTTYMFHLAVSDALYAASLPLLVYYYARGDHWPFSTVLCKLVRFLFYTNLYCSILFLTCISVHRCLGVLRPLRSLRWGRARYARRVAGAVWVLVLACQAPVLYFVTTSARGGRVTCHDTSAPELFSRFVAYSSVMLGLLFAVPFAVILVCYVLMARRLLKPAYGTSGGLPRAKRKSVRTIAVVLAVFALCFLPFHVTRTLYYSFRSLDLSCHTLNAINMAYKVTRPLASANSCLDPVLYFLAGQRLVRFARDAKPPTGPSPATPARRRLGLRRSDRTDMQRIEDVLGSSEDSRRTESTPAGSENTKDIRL

rat P2Y6 receptor, sequence (Q63371 whole entry): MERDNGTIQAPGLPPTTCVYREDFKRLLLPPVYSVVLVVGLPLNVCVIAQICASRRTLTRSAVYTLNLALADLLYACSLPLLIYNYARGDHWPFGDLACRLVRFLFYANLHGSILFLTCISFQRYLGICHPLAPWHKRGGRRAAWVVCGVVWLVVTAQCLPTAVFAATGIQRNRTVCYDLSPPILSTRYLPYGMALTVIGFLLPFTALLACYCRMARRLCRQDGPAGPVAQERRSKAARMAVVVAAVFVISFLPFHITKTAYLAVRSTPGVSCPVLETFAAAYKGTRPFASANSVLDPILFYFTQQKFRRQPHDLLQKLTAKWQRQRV
human P2Y4 receptor, sequence (P51582 whole entry): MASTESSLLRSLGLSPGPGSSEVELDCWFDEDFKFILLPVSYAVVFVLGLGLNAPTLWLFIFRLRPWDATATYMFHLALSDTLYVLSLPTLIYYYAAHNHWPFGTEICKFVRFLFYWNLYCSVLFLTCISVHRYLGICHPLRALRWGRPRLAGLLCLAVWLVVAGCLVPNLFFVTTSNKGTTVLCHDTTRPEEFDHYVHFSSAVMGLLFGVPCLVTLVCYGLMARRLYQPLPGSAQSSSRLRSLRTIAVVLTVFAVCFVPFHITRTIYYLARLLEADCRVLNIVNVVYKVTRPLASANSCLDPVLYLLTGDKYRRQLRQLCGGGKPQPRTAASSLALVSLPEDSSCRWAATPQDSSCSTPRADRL
turkey P2Y1 receptor, sequence (P49652 whole entry): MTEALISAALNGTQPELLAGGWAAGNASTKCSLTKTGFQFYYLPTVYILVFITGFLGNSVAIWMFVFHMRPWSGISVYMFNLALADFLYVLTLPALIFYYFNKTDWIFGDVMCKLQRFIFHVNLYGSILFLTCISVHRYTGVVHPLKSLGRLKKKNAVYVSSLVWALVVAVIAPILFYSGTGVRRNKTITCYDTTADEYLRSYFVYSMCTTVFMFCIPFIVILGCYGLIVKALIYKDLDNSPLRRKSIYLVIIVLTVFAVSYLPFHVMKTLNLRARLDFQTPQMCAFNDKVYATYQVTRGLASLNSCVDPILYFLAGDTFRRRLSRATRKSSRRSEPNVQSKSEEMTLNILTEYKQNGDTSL

2-MeS–ATP-α-B [compound 1]
activity at P2Y2R (P2Y2R): very weak agonists
t1/2 at physiological pH [1]: 1395 h
t1/2 of acidic hydrolysis [2]: 5.9 h
enhancement of insulin secretion as compared to basal secretion (perfused rat pancreas): ninefold
EC50 (perfused rat pancreas; read-out: EC50 of insulin secretion): 0.028 µM

Nc1ncnc2c1ncn2[C@@H]1O[C@H](COP(=O)(O)OP(=O)(O)CP(=O)(O)O)[C@@H](O)[C@H]1O [β,γ-CH2–ATP]
activation of P2Y1Rs (P2Y1R): did not activate
antagonism at P2Y1R (P2Y1R; responses elicited by 2-MeS–ADP ref 48): weak competitive antagonist
metabolism in cells [3]: rapidly metabolized to adenosine
activity at P2X1R (P2X1R): P2X1R agonist
activity at P2X2/3Rs (P2X2/3Rs): weak agonist
degradation by ecto-5′-nucleotidases (ecto-5′-nucleotidases): no degradation

CSc1nc(N)c2ncn([C@@H]3O[C@H](COP(=O)(O)OP(=O)(O)CP(=O)(O)O)[C@@H](O)[C@H]3O)c2n1 [compound 2, 2-MeS–adenosine-5′-O-triphosphate-β,γ-CH2]
EC50 (rat P2Y6 receptor): > 100 µM
EC50 (human P2Y4 receptor): > 100 µM
Relative activity of NTPDase8 (human NTPDase8): 7–8%
Relative activity of NTPDase1 (human NTPDase1): 7–8%
enhancement of the metabolic stability of ATP [4]: ≥ 3.5 fold
Relative activity of NTPDase3 (human NTPDase3): 7–8%
fraction ionized [5]: 9%
agonist activity at P2Y1R (turkey P2Y1 receptor): potent P2Y1R agonists
improvement of chemical stability as compared to 1 [6]: ~11 fold
EC50 (human P2Y2 receptor): > 100 µM
agonist activity at P2Y2R (human P2Y2 receptor; 1321N1 cell transfectants): inactivity
degradation by ecto-5′-nucleotidases (ecto-5′-nucleotidases): no degradation

BP(=O)(OC[C@H]1O[C@@H](n2cnc3c(N)nc(Cl)nc32)[C@H](O)[C@@H]1O)OP(=O)(O)OP(=O)(O)O (stereo partly drawn) [2-Cl–ATP-α-B, reference compound]
activity at P2Y2R (P2Y2R): very weak agonists
